This note sets out measurements from BindingDB's records for PubMed 40053382 (Sapienza University of Rome).

Test [1] in a line: Inhibition of HIV-1 Reverse transcriptase K103N mutant.
Test [2] can be described thus: Inhibition of wild type HIV-1 LAI reverse transcriptase.
The nature of test [3]: Inhibition of HIV-1 Reverse transcriptase K103N/Y181C double mutant.
A short description of test [4]: Inhibition of HIV-1 Reverse transcriptase L100I/K103N double mutant.
Test [5] is described as follows: Inhibition of HIV-1 integrase strand transfer activity.

In general, IC50 refers to the concentration needed to halve the response being measured. Regarding `Cc1cc(C#N)cc(C)c1Oc1ncnc(Nc2ccc(C#N)cc2)n1`, the IC50 in test [1] is 1.4 nM; in test [2], 1.4 nM; in test [3] it was 25 nM; in test [4], 49 nM.

Take `CSc1nc(C(C)C)c(Cc2ccccc2)n1COCc1ccccc1`: in test [5], half-maximal inhibition (IC50) was put at 3300 nM.

`CCOCn1c(SC)nc(C(C)C)c1CC1CCCCC1` gave an IC50 in test [5] of 250 nM.

Turning to `Cc1cc(C#N)cc(C)c1Nc1ncnc(Nc2ccc(C#N)cc2)n1`, the concentration for half-maximal inhibition (IC50) in test [1] was determined as 0.4 nM; in test [2], 0.4 nM; in test [3] it was 32 nM.

Regarding `Cc1cc(/C=C/C#N)cc(C)c1Nc1ncnc(Nc2ccc(C#N)cc2)n1`, the IC50 in test [1] was found to be 0.3 nM; in test [2] it was 0.4 nM; in test [3], 1 nM.

Compound `CCc1nc(SC)n(COCc2ccccc2)c1CC1CCCCC1` came in with an IC50 in test [5] of 400 nM.

In turn, `CSc1nc(C(C)C)c(CC2CCCCC2)n1COCc1ccccc1` gave an IC50 in test [5] of 260 nM.
